Among the data in patent publication US10543212B2, “Substituted amines for treating cardiac diseases” (Cardurion Pharmaceuticals, LLC, priority 2017, dated 2020) are IC50 values, retold here.

Molecules are shown by their SMILES. A value given as a limit tells only on which side of the number the result lay.

As a reminder, the IC50 is the concentration that gives 50% inhibition.

This experiment deals with T1, Full-length, GST-tagged, human CaMKIIδ (Homo sapiens, UniProt Q13557).
T1 construct: Full-Length, Glutathione-S-Transferase(GST)-Tagged, Human CaMKIIδ was purchased from Carna Biosciences; purchased Carna Biosciences 02-111
T1 sequence (Q13557 1-478 isoform Q13557-12): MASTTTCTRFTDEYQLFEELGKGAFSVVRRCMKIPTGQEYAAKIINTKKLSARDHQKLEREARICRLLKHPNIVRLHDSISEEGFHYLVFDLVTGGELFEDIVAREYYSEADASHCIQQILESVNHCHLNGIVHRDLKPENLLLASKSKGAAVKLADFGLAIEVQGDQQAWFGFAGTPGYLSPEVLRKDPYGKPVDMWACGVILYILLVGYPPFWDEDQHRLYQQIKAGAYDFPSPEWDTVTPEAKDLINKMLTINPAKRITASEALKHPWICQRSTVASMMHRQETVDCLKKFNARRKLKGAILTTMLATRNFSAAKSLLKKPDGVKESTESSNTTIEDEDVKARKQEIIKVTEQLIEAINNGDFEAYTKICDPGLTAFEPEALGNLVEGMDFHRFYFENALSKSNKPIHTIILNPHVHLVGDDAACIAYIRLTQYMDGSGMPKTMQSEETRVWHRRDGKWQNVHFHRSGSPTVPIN
The experiment is described as follows: CaMKIIδ binding assay (TR-FRET with BODIPY-labeled probe ligand). To be noted: CaMKIIδ binding assay, results of Table 2. The procedure, abridged:
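Compounds were tested as 4-fold, eight-point series for 1 hr at room temperature, and IC50 was obtained by logistic fitting against a 3 μM parent-compound control. Signal came from displacement of a 300 nM BODIPY ligand from 0.5 nM GST-CaMKIIδ, detected via Tb-anti-GST in calmodulin/Ca2+ (pH 7.6).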
Turning to `C[C@@H](Cn1cnnn1)Oc1cc(-c2cnc(Nc3cn(C4CCN(C5CCN(C6CC6)CC5)CC4)nc3C(F)(F)F)nc2)ccc1Cl` [Example 558, (S)-5-(3-((1-(1H-tetrazol-1-yl)propan-2-yl)oxy)-4-chlorophenyl)-N-(1-(1′-cyclopropyl-[1,4′-bipiperidin]-4-yl)-3-(trifluoromethyl)-1H-pyrazol-4-yl)pyrimidin-2-amine], the IC50 is less than 10 nM.

With `C[C@@H](Cn1cnnn1)Oc1cc(-c2cnc(Nc3cn(C4CCN(C5CCN(C)CC5)CC4)nc3C(F)(F)F)nc2)ccc1Cl` [Example 559, (S)-5-(3-((1-(1H-tetrazol-1-yl)propan-2-yl)oxy)-4-chlorophenyl)-N-(1-(1'-methyl-[1,4'-bipiperidin]-4-yl)-3-(trifluoromethyl)-1H-pyrazol-4-yl)pyrimidin-2-amine], the IC50 was less than 10 nM.

As to `C[C@@H](Cn1cnnn1)Oc1cc(-c2cnc(Nc3cn(C4CCN(Cc5ccsc5)CC4)nc3C(F)(F)F)nc2)ccc1Cl` [Example 560, (S)-5-(3-((1-(1H-tetrazol-1-yl)propan-2-yl)oxy)-4-chlorophenyl)-N-(1-(1-(thiophen-3-ylmethyl)piperidin-4-yl)-3-(trifluoromethyl)-1H-pyrazol-4-yl)pyrimidin-2-amine], the IC50 is less than 10 nM.

The compound `C[C@@H](Cn1cnnn1)Oc1cc(-c2cnc(Nc3cn(C4CCN(Cc5cc[nH]n5)CC4)nc3C(F)(F)F)nc2)ccc1Cl` [Example 561, (S)-N-(1-(1-((1H-pyrazol-3-yl)methyl)piperidin-4-yl)-3-(trifluoromethyl)-1H-pyrazol-4-yl)-5-(3-((1-(1H-tetrazol-1-yl)propan-2-yl)oxy)-4-chlorophenyl)pyrimidin-2-amine] registered an IC50 of less than 10 nM.

`C[C@@H](Cn1cnnn1)Oc1cc(-c2cnc(Nc3cn(C4CCN(C5COC5)CC4)nc3C(F)(F)F)nc2)ccc1Cl` [Example 562, (S)-5-(3-((1-(1H-tetrazol-1-yl)propan-2-yl)oxy)-4-chlorophenyl)-N-(1-(1-(oxetan-3-yl)piperidin-4-yl)-3-(trifluoromethyl)-1H-pyrazol-4-yl)pyrimidin-2-amine] showed an IC50 of 10 to 100 nM.

`C[C@@H](Cn1cnnn1)Oc1cc(-c2cnc(Nc3cn(C4CCN(Cc5cccnc5)CC4)nc3C(F)(F)F)nc2)ccc1Cl` [Example 563, (S)-5-(3-((1-(1H-tetrazol-1-yl)propan-2-yl)oxy)-4-chlorophenyl)-N-(1-(1-(pyridin-3-ylmethyl)piperidin-4-yl)-3-(trifluoromethyl)-1H-pyrazol-4-yl)pyrimidin-2-amine] had an IC50 of 10 to 100 nM.

For `C[C@@H](Cn1cnnn1)Oc1cc(-c2cnc(Nc3cn(C4CCN(Cc5ccccn5)CC4)nc3C(F)(F)F)nc2)ccc1Cl` [Example 564, (S)-5-(3-((1-(1H-tetrazol-1-yl)propan-2-yl)oxy)-4-chlorophenyl)-N-(1-(1-(pyridin-2-ylmethyl)piperidin-4-yl)-3-(trifluoromethyl)-1H-pyrazol-4-yl)pyrimidin-2-amine], the IC50 is less than 10 nM.

In turn, `C[C@@H](Cn1cnnn1)Oc1cc(-c2cnc(Nc3cn(C4CCN(C5CCS(=O)(=O)CC5)CC4)nc3C(F)(F)F)nc2)ccc1Cl` [Example 565, (S)-4-(4-(4-((5-(3-((1-(1H-tetrazol-1-yl)propan-2-yl)oxy)-4-chlorophenyl)pyrimidin-2-yl)amino)-3-(trifluoromethyl)-1H-pyrazol-1-yl)piperidin-1-yl)tetrahydro-2H-thiopyran 1,1-dioxide] yielded an IC50 of less than 10 nM.

In turn, `C[C@@H](Cn1cnnn1)Oc1cc(-c2cnc(Nc3cn(C4CCN(Cc5cccn5C)CC4)nc3C(F)(F)F)nc2)ccc1Cl` [Example 566, (S)-5-(3-((1-(1H-tetrazol-1-yl)propan-2-yl)oxy)-4-chlorophenyl)-N-(1-(1-((1-methyl-1H-pyrrol-2-yl)methyl)piperidin-4-yl)-3-(trifluoromethyl)-1H-pyrazol-4-yl)pyrimidin-2-amine] displayed an IC50 of less than 10 nM.

For `C[C@@H](Cn1cnnn1)Oc1cc(-c2cnc(Nc3cn(C4CCN(Cc5cnn(C)c5)CC4)nc3C(F)(F)F)nc2)ccc1Cl` [Example 567, (S)-5-(3-((1-(1H-tetrazol-1-yl)propan-2-yl)oxy)-4-chlorophenyl)-N-(1-(1-((1-methyl-1H-pyrazol-4-yl)methyl)piperidin-4-yl)-3-(trifluoromethyl)-1H-pyrazol-4-yl)pyrimidin-2-amine], the IC50 is less than 10 nM.

The compound `COc1ccc(C(=O)N2CCN(C)CC2)cc1Nc1ncc(-c2ccc(Cl)c(O[C@@H](C)Cn3cnnn3)c2)cn1` [Example 569, (S)-(3-((5-(3-((1-(1H-tetrazol-1-yl)propan-2-yl)oxy)-4-chlorophenyl)pyrimidin-2-yl)amino)-4-methoxyphenyl) (4-methylpiperazin-1-yl)methanone] gave an IC50 of less than 10 nM.

As to `COc1ccc(C(=O)N2C[C@@H](C)N[C@@H](C)C2)cc1Nc1ncc(-c2ccc(Cl)c(O[C@@H](C)Cn3cnnn3)c2)cn1` [Example 570, (3-((5-(3-(((S)-1-(1H-tetrazol-1-yl)propan-2-yl)oxy)-4-chlorophenyl)pyrimidin-2-yl)amino)-4-methoxyphenyl) (cis-3,5-dimethylpiperazin-1-yl)methanone], the IC50 was less than 10 nM.

Compound `C[C@@H](Cn1cnnn1)Oc1cc(-c2cnc(Nc3cn(CC4CCN(C(=O)OC(C)(C)C)C4)nc3C(F)(F)F)nc2)ccc1Cl` (stereo partly drawn) [Example 571, tert-butyl 3-((4-((5-(3-(((S)-1-(1H-tetrazol-1-yl)propan-2-yl)oxy)-4-chlorophenyl)pyrimidin-2-yl)amino)-3-(trifluoromethyl)-1H-pyrazol-1-yl)methyl) pyrrolidine-1-carboxylate] came in with an IC50 of no less than 100 nM.

For `C[C@@H](Cn1cnnn1)Oc1cc(-c2cnc(Nc3cn(CC4CCNC4)nc3C(F)(F)F)nc2)ccc1Cl` (stereo partly drawn) [Example 572, 5-(3-(((S)-1-(1H-tetrazol-1-yl)propan-2-yl)oxy)-4-chlorophenyl)-N-(1-(pyrrolidin-3-ylmethyl)-3-(trifluoromethyl)-1H-pyrazol-4-yl)pyrimidin-2-amine], the IC50 is less than 10 nM.

`COc1ccc(C(=O)N2CCCN(C3COC3)CC2)cc1Nc1ncc(-c2ccc(Cl)c(O[C@@H](C)Cn3cnnn3)c2)cn1` [Example 573, (S)-(3-((5-(3-((1-(1H-tetrazol-1-yl)propan-2-yl)oxy)-4-chlorophenyl)pyrimidin-2-yl)amino)-4-methoxyphenyl) (4-(oxetan-3-yl)-1,4-diazepan-1-yl)methanone] yielded an IC50 of less than 10 nM.

Regarding `C[C@@H](Cn1cnnn1)Oc1cc(-c2cnc(Nc3cn(CC4CCN(C5COC5)C4)nc3C(F)(F)F)nc2)ccc1Cl` (stereo partly drawn) [Example 574, 5-(3-(((S)-1-(1H-tetrazol-1-yl)propan-2-yl)oxy)-4-chlorophenyl)-N-(1-((1-(oxetan-3-yl)pyrrolidin-3-yl)methyl)-3-(trifluoromethyl)-1H-pyrazol-4-yl)pyrimidin-2-amine], the IC50 was less than 10 nM.

In turn, `C[C@@H](Cn1cnnn1)Oc1cc(-c2cnc(Nc3cc(C4CCNCC4)c(F)cc3F)nc2)ccc1Cl` [Example 575, (S)-5-(3-((1-(1H-tetrazol-1-yl)propan-2-yl)oxy)-4-chlorophenyl)-N-(2,4-difluoro-5-(piperidin-4-yl)phenyl)pyrimidin-2-amine] showed an IC50 of less than 10 nM.
